According to paper PMC5458179, “Oxidative DNA double strand breaks and autophagy in the antitumor effect of sterically hindered platinum(II) complexes in NSCLCs” (Oncotarget, 2017):

Experiments:
Assay type in all cases: cell-based, human
[1] = tested on: A549 and NCI-H1299 cancer cells; experiment: H2O2 measurement (Amplex Red); conditions: A549 and NCI-H1299, 10 μM, 2 h
Method: (§1) As excessive ROS generation is associated with cell-killing activity, we further examined whether complex 3 could also induce the formation of excessive ROS in A549 and NCI-H1299 cancer cells.
The production of H2O2 was determined with the Amplex® Red reagent (10-acetyl-3,7-dihydroxyphenoxazine; Molecular Probes). In the presence of horseradish peroxidase (HPR), the Amplex® Red reagent reacts in a 1:1 stoichiometry to produce the red-fluorescent oxidation product, resorufin. Consequently, resorufin generation allows the detection of the H2O2 released from biological compounds. […] Resorufin generation was measured over time using a fluorometer (Fluostar BMG Labtech) at 544 nm excitation and 590 nm emission.

A549 cancer cells = experiment: Intracellular GSH measurement; conditions: A549, 10 μM, 4 h
Method: After 4 h, medium was removed and dishes were rinsed three times with cold PBS. The cells were harvested and cell numbers were counted. Then, intracellular GSH levels were measured using a GSH test kit (KeyGen KGT006). A549 and NCI-H1299 cancer cells without treatment were used as control groups.

Bax and Bcl-2 = experiment: Western blot of Bax and Bcl-2; conditions: A549, 10 μM, 24 h, whole cell lysates
Method: The role of complex 3-induced autophagy in cell death was further analyzed (Figure 6). When A549 cancer cells were treated with complex 3 of 10 μM, the protein expression of LC3-II was increased (Figure 6A). […] Treatment with complex 3 for 24 h caused a 4.5-folds increase in cells undergoing autophagy (Figure 6C). […] Moreover, Bax and Bcl-2 expressions were measured by western blot analysis of whole cell lysates.
Lysates were centrifuged at 12,000 g for 0.5 h at 4°C. The concentrations of total proteins were measured using the BCA assay method with Varioskan spectrofluorometer and spectrophotometer (Thermo, Waltham, MA) at 562 nm. Protein (20–100 μg) prepared from the indicated cells was loaded per lane and electrophoresed in 8% or 10% sodium dodecyl sulfate polyacrylamide gel electrophoresis (SDS-PAGE), and then transferred onto polyvinylidene difluoride (PVDF) Immobilon-P membrane (Bio-Rad, USA) using a transblot apparatus (Bio-Rad, USA). The membranes were blocked with 5% (w/v) non-fat milk at 0.5 h at 37°C, followed by overnight incubation at 4°C with primary antibodies diluted in PBST. After washing with PBST, the membranes were incubated for 1 h with an IRDye´800 conjugated secondary antibody diluted 1:20000 in PBST, and the labeled proteins were detected with an Odyssey Scanning System (Li-COR., Lincoln, Nebraska, USA).

[2] = tested on: A549 and NCI-H1299 cancer cells; experiment: ROS measurement (DCF fluorescence); conditions: A549 and NCI-H1299, 10 μM
Method: as §1
The generation of ROS induced by complex 3 was determined with the cell permeant fluorogenic probe 2′,7′-dichlorodihydrofluorescein diacetate (H2DCFDA; Molecular Probes, Invitrogen, Darmstadt, Germany) as described. H2DCFDA diffuses into the cell, where it is enzymatically converted by intracellular esterases and oxidized into the high fluorescence compound DCF, which allows the determination of H2O2, peroxynitrite anions and peroxyl radicals. Approximately 4×10^3 A549 and NCI-H1299 cancer cells per well were plated on white bottom 96-well plates in extracellular fluid ([…] NaCl, 3 mM KCl, 1 mM CaCl2, 1 mM MgCl2, 10 mM HEPES and 25 mM glucose; pH 7.4). […] Then, cells were loaded with […] H2DCFDA for 30 min at 37°C and 5% CO2. Then, cells DCF generation was measured over time using a fluorometer (Fluostar BMG Labtech, Offenburg, Germany) at 492 nm excitation and 520 nm emission.

[3] = tested on: A549 and NCI-H1299 cancer cells; experiment: Mitochondrial transmembrane potential (JC-1); conditions: A549 and NCI-H1299, 10 μM, 24 h
Excerpt: To further study the detailed process of apoptosis induced by complex 3 in NSCLC cells, we examined the mitochondrial membrane potential (ΔΨm), which is an important proapoptotic index for early apoptosis. We chose a mitochondria-specific and voltage-dependent fluorescent probe, JC-1, to observe whether there was loss in ΔΨm.
The electrical potential difference across inner mitochondrial membrane (ΔΨm) was monitored using the ΔΨm-specific fluorescent probe JC-1 (Molecular Probes Inc., Eugene, OR), a sensitive fluorescent dye. […] Red fluorescence is attributable to a potential-dependent aggregation in the mitochondria. Green fluorescence, reflecting the monomeric form of JC-1, appeared in the cytosol after mitochondrial membrane depolarization. Relative fluorescence intensities were monitored using the flow cytometry (FACSCalibur, Becton Dickinson), and analyzed by the software Modfit and Cell Quest (BD Biosciences, Franklin Lakes, NJ) with settings of FL1 (green) at 530 nm and FL2 (red) at 585 nm.

MDC1/Aprataxin = experiment: Immunostaining of DSB repair proteins; conditions: A549, 10 μM, 24 h
Excerpt: The serine 139-phosphorylated form of chromatin-associated histone H2AX, namely γ-H2AX, is a key marker of cellular response to DDR, particularly DSBs. […] Obviously, pre-treatment of NAC could considerably alleviate the DDR triggered by complex 3 (Figure 5B). Therefore, we came to a conclusion that complex 3 caused DDR especially DSBs in A549 cells, which might happen after the increased level of intracellular ROS. In order to reveal the mechanisms underlying the enhanced DNA damage, complex 3 was studied to learn whether it could reduce the activation of DNA repair response including the co-localization of DSB repair protein MDC1/Aprataxin within nucleus. […] In order to reveal the mechanisms underlying DNA damage, complex 3 was studied to detect whether it could suppress the activation of DNA single strand break repair via the phosphorylation of SSB repair mediator/adaptor proteins XRCC1 within nucleus.
For assessment of DSBs repair kinetics we detected the total nuclear volume for an average of 50–60 nuclei per time points and cell type. Briefly, A549 cells were grown to confluence in 35 mm petri-dishes with 0.17 mm glass bottom. […] Non-specific binding was blocked by incubation with 5% FCS/PBS/0.1% Triton X-100 for 1 h at RT. […] Numbers of γH2AX foci were counted in 50–60 nuclei and plotted over time as previously described.

[4] = tested on: A549 and NCI-H1299 cancer cells; experiment: Colony formation assay; conditions: A549 and NCI-H1299, 7 days
Method: Cells were trypsinized and plated at a density of 500 perplate. […] Cells were then fixed with 3% paraformaldehyde, stained with crystal violet and imaged with a light microscope. The experiment was performed in triplicate. The number of colonies, defined as containing > 50 cells, was counted.

CC(C)C[NH+]1[C@@H]2CCCC[C@H]2[NH+](CC(C)C)[Pt-2]12[O]C(=O)CC(=O)[O]2 (stereo partly shown) [Complex 3]
production of H2O2 [1]: significantly higher
intracellular GSH levels (A549 cancer cells): did significantly reduce
Bax and Bcl-2 protein levels (Bax and Bcl-2): Incremental changes in pro-apoptotic Bax and decreased changes anti-apoptotic Bcl-2 protein levels
ROS production [2]: induced the production of significant amounts of ROS
mitochondrial membrane potential (ΔΨm) [3]: remarkable decrement of ΔΨm
co-localization of MDC1/Aprataxin to the damaged DNA (MDC1/Aprataxin): dramatically decrease in the co-localization of MDC1/Aprataxin
colony formation [4]: significantly reduced colony formation
